Here are results for 24 molecules from patent US10774052B2, “Heteroaryl compounds and uses thereof” (Celgene CAR LLC, priority 2013, dated 2020).

Some results are limits rather than exact numbers.

For one experiment, the system named is pFGFR4 in MDA-MB-453 cells. Description: FGFR4 signaling, pFGFR4 (MDA); Western blot (Method A), MSD (Method B), ELISA (Method C). Type of experiment: cell-based. As to conditions: Homo sapiens, MDA-MB-453, MDA-MB-453 cells; Method B (MSD) for signaling EC50 determination. The procedure: The MDA-MB-453 protein concentrations were determined by a BCA Assay (Pierce, Rockford, Ill.). A sample of 50-100 μg of each lysate was separated by a 4-12% gradient (SDS-PAGE (Invitrogen)), transferred to a nitrocellulose membrane (Biorad, Hercules, Calif.), and probed with specific antibodies. Phospho-protein signals were quantitated using Odyssey Infrared Imaging (Li-Cor Biosciences).
To assess phospho-FGFR signaling, the blots were probed with anti-Phospho-FGFR (Y653/Y654) and total anti-FGFR antibodies. The phospho-FGFR signal was normalized to total FGFR expression for each sample.
For the molecule `C=CC(=O)Nc1ccccc1Nc1ncc2c(n1)N(CC(=O)OC(C)(C)C)C(=O)N(c1cc(OC)cc(OC)c1)C2` [Compound I-96], the 50% effective concentration (EC50) (as a rule, the concentration at which the effect is half-maximal) was greater than 1000 nM.
As to `C=CC(=O)N[C@@H]1CCCC[C@@H]1Nc1ncc2c(n1)N(Cc1nccs1)C(=O)N(c1c(Cl)c(OC)cc(OC)c1Cl)C2` [Compound I-93], the EC50 was greater than 1000 nM.
For `CCC(=O)Nc1ccccc1Nc1ncc2c(n1)N(Cc1ccccc1)C(=O)N(c1c(Cl)c(OC)cc(OC)c1Cl)C2` [Compound I-236], the half-maximal effective concentration (EC50) was 101 to 500 nM.
In turn, `C=CC(=O)Nc1ccccc1Oc1ncc2c(n1)N(C)C(=O)N(c1c(Cl)c(OC)cc(OC)c1Cl)C2` [Compound I-65] returned an EC50 of 101 to 500 nM.

Still in this experiment, the particulars now being: Homo sapiens; MDA-MB-453 cells; Method B (MSD) for signaling EC50 determination.
`C=CC(=O)Nc1ccccc1Nc1ncc2c(n1)N(Cc1ccnc(N)c1)C(=O)N(c1c(Cl)c(OC)cc(OC)c1Cl)C2` [Compound I-135]: the EC50 was less than 100 nM.
`C=CC(=O)NC1CCCCC1Nc1ncc2c(n1)N(Cc1cccnc1)C(=O)N(c1c(Cl)c(OC)cc(OC)c1Cl)C2` (racemic) [Compound I-35] had an EC50 of 101 to 500 nM.
In turn, `C=CC(=O)Nc1ccccc1Nc1ncc2c(n1)N(C1CC1)C(=O)N(c1c(Cl)c(OC)cc(OC)c1Cl)C2` [Compound I-23] yielded an EC50 of less than 100 nM.
On to `C=CC(=O)Nc1ccc(-c2cnn(C)c2)cc1Nc1ncc2c(n1)N(C)C(=O)N(c1c(Cl)c(OC)cc(OC)c1Cl)C2` [Compound I-74], for which the EC50 was less than 100 nM.
For `C=CC(=O)Nc1ccccc1Nc1ncc2c(n1)N(Cc1cccc(C#N)c1)C(=O)N(c1cc(OC)cc(OC)c1)C2` [Compound I-90], the EC50 fell in the range of 101 to 500 nM.
As for `C=CC(=O)NC1CCCC1Nc1ncc2c(n1)N(C)C(=O)N(c1c(Cl)c(OC)cc(OC)c1Cl)C2` (racemic) [Compound I-112], the EC50 lay within 101 to 500 nM.
Consider `C=CC(=O)Nc1cc(Cl)c(Cl)cc1Nc1ncc2c(n1)N(Cc1ccccc1)C(=O)N(c1c(Cl)c(OC)cc(OC)c1Cl)C2` [Compound I-11], for which the EC50 is greater than 1000 nM.
Consider `C=CC(=O)N[C@H]1CCCC[C@H]1Nc1ncc2c(n1)N(Cc1cn[nH]c1)C(=O)N(c1c(Cl)c(OC)cc(OC)c1Cl)C2` [Compound I-152], for which the EC50 was less than 100 nM.
For `C=CC(=O)Nc1ccccc1Nc1ncc2c(n1)N(C)C(=O)N(c1cc(OC)cc(OC)c1Cl)C2` [Compound I-75], the EC50 is less than 100 nM.
Molecule `C=CC(=O)Nc1cc(N2CCN(C(=O)CCC(=O)O)CC2)ccc1Nc1ncc2c(n1)N(C)C(=O)N(c1c(Cl)c(OC)cc(OC)c1Cl)C2` [Compound I-123] showed an EC50 of less than 100 nM.
For the molecule `C=CC(=O)Nc1ccc(C)cc1Nc1ncc2c(n1)N(C)C(=O)N(c1cc(OC)cc(OC)c1)C2` [Compound I-49], the 50% effective concentration (EC50) lay within 501 to 999 nM.
`C=CC(=O)Nc1ccccc1Nc1ncc2c(n1)N(CC1CC1)C(=O)N(c1cc(OC)cc(OC)c1F)C2` [Compound I-109] gave an EC50 of less than 100 nM.
Turning to `C=CC(=O)NC1CCCCC1Nc1ncc2c(n1)N(Cc1cccc(NS(C)(=O)=O)c1)C(=O)N(c1c(Cl)c(OC)cc(OC)c1Cl)C2` (racemic) [Compound I-89], the EC50 was 101 to 500 nM.
As for `C=CC(=O)Nc1cc(N2CCN(CCOC)CC2)ccc1Nc1ncc2c(n1)N(C)C(=O)N(c1cc(OC)cc(OC)c1)C2` [Compound I-20], the EC50 is less than 100 nM.
Molecule `C=CCCN1C(=O)N(c2cc(OC)cc(OC)c2)Cc2cnc(Nc3ccccc3NC(=O)C=C)nc21` [Compound I-57] showed an EC50 of less than 100 nM.
`C=CC(=O)Nc1cc(N2CCOCC2)ccc1Nc1ncc2c(n1)N(C)C(=O)N(c1cc(OC)cc(OC)c1)C2` [Compound I-17] gave an EC50 of less than 100 nM.
The same measure, in the same setting: the result for `C=CC(=O)Nc1ccccc1Nc1ncc2c(n1)N(CCC(O)CO)C(=O)N(c1cc(OC)cc(OC)c1)C2` (stereo not drawn) [Compound I-58] reads 101 to 500 nM; that for `C=CC(=O)Nc1ccccc1Nc1ncc2c(n1)N(CC(F)F)C(=O)N(c1c(Cl)c(OC)cc(OC)c1Cl)C2` [Compound I-103], less than 100 nM.
Take `C=CC(=O)Nc1ccccc1Nc1ncc2c(n1)N(C)C(=O)N(C1CCCCC1)C2` [Compound I-52]: the EC50 is greater than 1000 nM.

The same experiment, now with this note: Homo sapiens; MDA-MB-453 cells; Method C (ELISA) for signaling EC50 determination.
Take `C=CC(=O)Nc1ccccc1Nc1ncc2c(n1)N(Cc1ccccc1)C(=O)N(c1c(Cl)c(OC)cc(OC)c1Cl)C2` [Compound I-3]: the EC50 was less than 100 nM.
